Experimental data published in patent US20070128685A1, “Methods and compositions for cell culture” (priority 2005, published 2007).

What was measured:
[1] = tested on: Normal human adult chondrocytes and normal rodent chondrocytes; test: Culture of chondrocytes in supplemented DMEM serum free media; assay type: cell-based; conditions: DMEM SFM, Collagenase 5 μg/ml; after 4, 6, and 9 passages
Method: Currently, there is not any SFM commercially available for chondrocytes. Using the serum-containing media available, the life-span of the chondrocytes in culture is very limited (up to 3 to 4 passages, between 10-15 doublings times). Thus, the present example illustrates the use of collagenase and forskolin to allow the used of SFM with chondrocytes.
Normal human adult chondrocytes and normal rodent chondrocytes were cultured in a SFM. Collagenase (5 μg/ml) was added into the DMEM serum free media (SFM) and tested on said primary and secondary chondrocytes cultures.

[2] = tested on: Human dermal adult and newborn skin fibroblasts; test: Proliferation of human dermal fibroblasts in media supplemented with collagenase; assay type: cell-based; conditions: primary and secondary culture
Method: Human dermal adult and newborn skin fibroblasts were cultured in a SFM and serum-containing media (DMEM 5% FBS). Collagenase ([…]) was added to the DMEM serum free media (SFM) and tested on primary and secondary culture of human adult and newborn fibroblasts. In both cases (SFM and DMEM 5%) Collagenase increase cell proliferation up to 2-2.5 fold over the controls.

Collagenase
growth of chondrocytes [1]: robust growth | increase of cell proliferation over the controls ([2]; DMEM serum free media (SFM), Collagenase 1 μg/nl): 2-2.5 fold | increase of cell proliferation over the controls ([2]; serum-containing media (DMEM 5% FBS)): 2-2.5 fold
